The source of these data is US11053234B2 (GlaxoSmithKline Intellectual Property Development Limited, priority 2016, dated 2021).

Each structure is given as a SMILES string. Structures can show the parent of a compound that is named as a salt.

The target of this test is T1, haematopoietic prostaglandin D synthase (H-PGDS) (Homo sapiens, UniProt O60760).
T1 construct: Full length human H-PGDS cDNA (Invitrogen Ultimate ORF 10H13026) was amplified by PCR; 6-His (N); TEV protease cleavage site (N); made in house; host or cells: E. coli BL21 (DE3*), vector pET22b+
T1 sequence (O60760 whole entry): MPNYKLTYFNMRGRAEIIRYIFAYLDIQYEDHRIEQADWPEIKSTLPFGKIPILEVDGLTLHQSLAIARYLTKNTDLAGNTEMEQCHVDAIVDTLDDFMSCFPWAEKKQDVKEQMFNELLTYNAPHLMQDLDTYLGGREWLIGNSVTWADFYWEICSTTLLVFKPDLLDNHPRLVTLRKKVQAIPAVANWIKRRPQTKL
The experiment in a line: H-PGDS RapidFire high throughput mass spectrometry assay (conversion of PGH2 to PGD2). Format: biochemical. As to conditions: 10 nM H-PGDS, PGH2 formed in situ by COX-2 from arachidonic acid; read-out: Potency Range (mean pIC50) (converted). In a few lines: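 PGH2 substrate generated in situ by COX-2 (full-length human, FLAG-tagged, Sf9-expressed) from arachidonic acid at ˜10 μM, then converted by full-length human His-tagged H-PGDS (E. coli-expressed). RapidFire SPE–triple quadrupole MS measured PGD2 against PGF2α as substrate surrogate to give percent conversion.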

Regarding `O=C(NC1CN(c2ncc(F)cn2)C1)[C@H]1C[C@H](Oc2cccc3scnc23)C1` [Example 78, (trans)-3-(Benzo[d]thiazol-4-yloxy)-N-(1-(5-fluoropyrimidin-2-yl)azetidin-3-yl)cyclobutanecarboxamide], the IC50 is 10 to 79.4 nM. Regarding `N#Cc1csc(NC(=O)[C@H]2C[C@H](Oc3cccc4cccnc34)C2)n1` [Example 188, (trans)-N-(4-Cyanothiazol-2-yl)-3-(quinolin-8-yloxy)cyclobutanecarboxamide, trifluoroacetic acid salt], the IC50 is below 10 nM. The value for `O=C(Nc1ccncc1)N1CC(Oc2cccc3scnc23)C1` [Example 63, 3-(Benzo[d]thiazol-4-yloxy)-N-(pyridin-4-yl)azetidine-1-carboxamide] was 100 to 1000 nM; that for `Cc1nccc(N2CC(NC(=O)[C@H]3C[C@H](Oc4cc(F)cc5scnc45)C3)C2)n1` [Example 123, (trans)-3-((6-Fluorobenzo[d]thiazol-4-yl)oxy)-N-(1-(2-methylpyrimidin-4-yl)azetidin-3-yl)cyclobutanecarboxamide] was 10 to 79.4 nM.

Regarding `CC(C)(O)[C@H]1CC[C@H](NC(=O)[C@H]2C[C@H](Oc3cc(F)ccc3OC(F)F)C2)CC1` [Example 34, (trans)-3-(2-(Difluoromethoxy)-5-fluorophenoxy)-N-((trans)-4-(2-hydroxypropan-2-yl)cyclohexyl)cyclobutanecarboxamide], the IC50 is 10 to 79.4 nM.

Take `C[C@@H]1[C@H](Oc2cccc3scnc23)CN1C(=O)N[C@H]1CC[C@H](C(C)(C)O)CC1` [Example 305, (2R,3R)-3-(Benzo[d]thiazol-4-yloxy)-N-((trans)-4-(2-hydroxypropan-2-yl)cyclohexyl)-2-methylazetidine-1-carboxamide]: the IC50 is 10 to 79.4 nM. For `COc1ccc(F)cc1O[C@H]1C[C@H](C(=O)NC2CC3(C2)CC(C(C)(C)O)C3)C1` (mixture of isomers) [Example 160, Racemic (trans)-3-(5-Fluoro-2-methoxyphenoxy)-N-(6-(2-hydroxypropan-2-yl)spiro[3.3]heptan-2-yl)cyclobutanecarboxamide], the IC50 was below 10 nM. In the case of `COc1ccc(F)cc1O[C@H]1C[C@H](C(=O)N[C@H]2CC[C@H](NC(C)C(F)(F)F)CC2)C1` (mixture of isomers) [Example 161, Racemic (trans)-3-(5-Fluoro-2-methoxyphenoxy)-N-((trans)-4-((1,1,1-trifluoropropan-2-yl)amino)cyclohexyl)cyclobutanecarboxamide], the IC50 is 10 to 79.4 nM. In the case of `Cc1nccc(N2CC(NC(=O)[C@H]3C[C@H](Oc4cccc5scnc45)C3)C2)n1` [Example 50, (trans)-3-(Benzo[d]thiazol-4-yloxy)-N-(1-(2-methylpyrimidin-4-yl)azetidin-3-yl)cyclobutanecarboxamide] it was 10 to 79.4 nM; in that of `CN1CCN([C@H]2CC[C@H](NC(=O)N3CC(Oc4cccc5scnc45)C3)CC2)C1=O` [Example 102, 3-(Benzo[d]thiazol-4-yloxy)-N-((trans)-4-(3-methyl-2-oxoimidazolidin-1-yl)cyclohexyl)azetidine-1-carboxamide], 100 to 1000 nM. In the case of `CN(C)C(=O)c1csc(NC(=O)[C@H]2C[C@H](Oc3cccc4cccnc34)C2)n1` [Example 197, N,N-Dimethyl-2-((trans)-3-(quinolin-8-yloxy)cyclobutanecarboxamido)thiazole-4-carboxamide, trifluoroacetic acid salt] it was below 10 nM. As for `CC(C)(O)[C@H]1CC[C@H](NC(=O)N2CC(Oc3cccc4ccoc34)C2)CC1` [Example 260, 3-(Benzofuran-7-yloxy)-N-((trans)-4-(2-hydroxypropan-2-yl)cyclohexyl)azetidine-1-carboxamide], the IC50 is 10 to 79.4 nM. Consider `O=C(NC1CN(c2ccc(F)cn2)C1)[C@H]1C[C@H](Oc2cccc3scnc23)C1` [Example 44, (trans)-3-(Benzo[d]thiazol-4-yloxy)-N-(1-(5-fluoropyridin-2-yl)azetidin-3-yl)cyclobutanecarboxamide], for which the IC50 was 10 to 79.4 nM. In the case of `CC(N[C@H]1CC[C@H](NC(=O)[C@H]2C[C@H](Oc3cccc4scnc34)C2)CC1)C(F)F` (mixture of isomers) [Example 46, Racemic (trans)-3-(Benzo[d]thiazol-4-yloxy)-N-((trans)-4-((1,1-difluoropropan-2-yl)amino)cyclohexyl)cyclobutanecarboxamide] it was 10 to 79.4 nM; in that of `COCCO[C@H]1CC[C@H](NC(=O)[C@H]2C[C@H](Oc3cccc4scnc34)C2)CC1` [Example 58, (trans)-3-(Benzo[d]thiazol-4-yloxy)-N-((trans)-4-(2-methoxyethoxy)cyclohexyl)cyclobutanecarboxamide], 100 to 1000 nM; in that of `Cc1cccc(NC(=O)[C@H]2C[C@H](Oc3cccc4cccnc34)C2)n1` [Example 181, (trans)-N-(6-Methylpyridin-2-yl)-3-(quinolin-8-yloxy)cyclobutanecarboxamide], 10 to 79.4 nM. The value for `CC(N[C@H]1CC[C@H](NC(=O)[C@H]2C[C@H](Oc3cccc4cccnc34)C2)CC1)C(F)(F)F` (mixture of isomers) [Example 173, Racemic (trans)-3-(Quinolin-8-yloxy)-N-((trans)-4-((1,1,1-trifluoropropan-2-yl)amino)cyclohexyl)cyclobutanecarboxamide] was 10 to 79.4 nM; that for `CC(C)(O)[C@H]1CC[C@H](NC(=O)[C@H]2C[C@H](Oc3cccc4c(Br)coc34)C2)CC1` [Example 269, (trans)-3-((3-Bromobenzofuran-7-yl)oxy)-N-((trans)-4-(2-hydroxypropan-2-yl)cyclohexyl)cyclobutanecarboxamide] was 10 to 79.4 nM. `COC(=O)N1CCCC(NC(=O)N2CC(Oc3cccc4scnc34)C2)C1` (racemic) [Example 93, Racemic Methyl 3-(3-(benzo[d]thiazol-4-yloxy)azetidine-1-carboxamido)piperidine-1-carboxylate]: the IC50 was 100 to 1000 nM. The value for `COC(=O)C12CCC(NC(=O)[C@H]3C[C@H](Oc4cccc5scnc45)C3)(CC1)CC2` [Example 326, Methyl 4-((trans)-3-(benzo[d]thiazol-4-yloxy)cyclobutane-1-carboxamido)bicyclo[2.2.2]octane-1-carboxylate] was 10 to 79.4 nM; that for `Cn1nc(C2CC2)cc1NC(=O)[C@H]1C[C@H](Oc2cccc3cccnc23)C1` [Example 214, (trans)-N-(3-Cyclopropyl-1-methyl-1H-pyrazol-5-yl)-3-(quinolin-8-yloxy)cyclobutanecarboxamide] was 100 to 1000 nM; that for `O=C(c1csc(NC(=O)[C@H]2C[C@H](Oc3cc(F)ccc3OC(F)F)C2)n1)C1CC1` [Example 32, (trans)-N-(4-(Cyclopropanecarbonyl)thiazol-2-yl)-3-(2-(difluoromethoxy)-5-fluorophenoxy)cyclobutanecarboxamide] was below 10 nM. In the case of `CC(C)(C)c1nnc(NC(=O)N2CC(Oc3cccc4scnc34)C2)s1` [Example 332] it was below 10 nM. In the case of `COc1ccc(F)cc1O[C@H]1C[C@H](C(=O)NC2CCN(c3cc(C#N)ccn3)CC2)C1` [Example 155, (trans)-N-(1-(4-Cyanopyridin-2-yl)piperidin-4-yl)-3-(5-fluoro-2-methoxyphenoxy)cyclobutanecarboxamide], the IC50 is 10 to 79.4 nM.
